Consider 27 compounds from US8362000B2, “Azetidinyl diamides as monoacylglycerol lipase inhibitors” (Janssen Pharmaceutica NV, priority 2009, dated 2013).

Where two headings read alike, the source gives them in different places.

The target in one test is T1, MGL (Rattus norvegicus, UniProt Q8R431).
T1 construct: one g rat brain was homogenized using a Polytron homogenizer; from tissue; host or cells: rat brain homogenate
T1 sequence (Q8R431 1-303): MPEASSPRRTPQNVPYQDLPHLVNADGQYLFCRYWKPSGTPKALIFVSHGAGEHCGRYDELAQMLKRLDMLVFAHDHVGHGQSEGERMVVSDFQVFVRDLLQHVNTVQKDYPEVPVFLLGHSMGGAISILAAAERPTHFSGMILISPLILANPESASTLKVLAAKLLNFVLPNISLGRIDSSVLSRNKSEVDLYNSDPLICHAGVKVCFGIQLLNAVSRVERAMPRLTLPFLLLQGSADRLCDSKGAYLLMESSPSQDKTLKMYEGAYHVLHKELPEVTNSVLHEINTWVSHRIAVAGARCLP
Put plainly: 2-AG accumulation assay in rat brain homogenate. The format is biochemical. To be noted: rat brain homogenate, 2-AG accumulation as percent of vehicle; for 2-AG accumulation, % of vehicle control at 1 µM: compound 1 μM, read-out: Rat Brain 2AG % VehCntrl (%) @ 1 μM; for 2-AG accumulation, % of vehicle control at 10 µM: compound 10 μM, read-out: Rat Brain 2AG % VehCntrl (%) @ 10 μM.

A further test has as its target T2, mutant MGL (Homo sapiens, UniProt Q99685, L169S/L176S).
T2 sequence (Q99685 1-303 L169S/L176S): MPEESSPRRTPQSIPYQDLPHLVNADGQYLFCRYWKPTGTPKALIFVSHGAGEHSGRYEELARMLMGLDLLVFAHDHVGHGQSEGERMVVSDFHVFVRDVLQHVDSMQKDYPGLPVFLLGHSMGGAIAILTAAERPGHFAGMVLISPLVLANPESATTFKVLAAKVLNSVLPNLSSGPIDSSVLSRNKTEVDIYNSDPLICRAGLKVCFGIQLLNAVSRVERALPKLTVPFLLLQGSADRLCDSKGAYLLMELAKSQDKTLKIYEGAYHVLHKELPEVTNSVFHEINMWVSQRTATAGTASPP
Put plainly: MGL ThermoFluor assay - mutant. The class given is binding. On the technique in general: DSF heats the sample and reads unfolding from a dye or from intrinsic fluorescence.

Setting [1] is: ThermoFluor concentration-response, read-out: MGL mutant ThermoFluor Kd.
[2] abbreviates: ThermoFluor thermal stability binding assay, read-out: MGL mutant ThermoFluor Kd.

In the case of `O=C(c1ccc(CNc2cccc(Cl)c2)cc1)N1CC(N2CCN(C(=O)c3cscn3)CC2)C1` [Cpd 969], the 2-AG accumulation, % of vehicle control at 1 µM on MGL was 515%. Moreover, the Kd on mutant MGL (setting [1]) is 0.069 µM.

As for `O=C(c1ccc(-c2ccccc2)cc1)N1CC(N2CCN(C(=O)c3ccco3)CC2)C1` [Cpd 6, 1-[1-(Biphenyl-4-ylcarbonyl)azetidin-3-yl]-4-(furan-2-ylcarbonyl)piperazine], the 2-AG accumulation, % of vehicle control at 0.01 µM on MGL (compound 0.01 μM, read-out: Rat Brain 2AG % VehCntrl (%) @ 0.01 μM) is 75%. The 2-AG accumulation, % of vehicle control at 0.1 µM at MGL (compound 0.1 μM, read-out: Rat Brain 2AG % VehCntrl (%) @ 0.1 μM) worked out at 238%. Also, on MGL, the 2-AG accumulation, % of vehicle control at 1 µM came to 554% and the 2-AG accumulation, % of vehicle control at 10 µM amounted to 623%. Besides, on mutant MGL (setting [1]), the Kd turned out to be 0.0036 µM.

For `O=C(c1ccc2c(c1)CCCN2C(=O)c1cccc(C(F)(F)F)c1)N1CC(N2CCN(C(=O)c3nccs3)CC2)C1` [Cpd 358, 6-(3-[4-(1,3-Thiazol-2-ylcarbonyl)piperazin-1-yl]-azetidin-1-yl)-carbonyl 1-[3-(trifluoromethyl)phenyl]carbonyl-1,2,3,4-tetrahydroquinoline], the 2-AG accumulation, % of vehicle control at 1 µM at MGL was 556%. For the same compound, at mutant MGL (setting [2]), the Kd is 0.065 µM.

`O=C(c1ccc(Oc2ccccn2)c(F)c1)N1CC(N2CCN(C(=O)c3nccs3)CC2)C1` [Cpd 909]: on MGL, the 2-AG accumulation, % of vehicle control at 1 µM was 144%. In addition, the Kd at mutant MGL (setting [1]) worked out at 0.325 µM.

Take `O=C(/C=C/c1ccc(SC(F)(F)F)cc1)N1CC(N2CCN(C(=O)c3cscn3)CC2)C1` [Cpd 648]: the 2-AG accumulation, % of vehicle control at 1 µM at MGL came out at 126%. In addition, the Kd on mutant MGL (setting [1]) amounted to 0.146 µM.

For the compound `O=C(c1cscn1)N1CCN(C2CN(C(=O)c3sc4cc(F)ccc4c3Cl)C2)CC1` [Cpd 929], the 2-AG accumulation, % of vehicle control at 1 µM on MGL stood at 301%. Further, the Kd at mutant MGL (setting [2]) was determined as 0.02 µM.

For the compound `[2H]c1c([2H])c([2H])c(C(=O)N2CCN(C3CN(C(=O)c4ccc(-c5cccc(C(F)(F)F)c5)cc4)C3)CC2)c([2H])c1[2H]` [Cpd 186-A], the 2-AG accumulation, % of vehicle control at 1 µM at MGL worked out at 149%. Also, the Kd at mutant MGL (setting [2]) was 0.016 µM.

As to `CN(c1ccccc1)c1ccc(C(=O)N2CC(N3CCN(C(=O)c4ccccc4)CC3)C2)cc1` [Cpd 40, N-Methyl-N-phenyl-4-({3-[4-(phenylcarbonyl)piperazin-1-yl]azetidin-1-yl}carbonyl)aniline], the 2-AG accumulation, % of vehicle control at 10 µM on MGL was found to be 490%. Besides, on mutant MGL (setting [1]), the Kd was found to be 0.0242 µM.

In the case of `O=C(c1ccc(-c2ccccc2)cc1)N1CC(N2CCN(C(=O)c3ccc(Cl)o3)CC2)C1` [Cpd 312, 1-[1-(Biphenyl-4-ylcarbonyl)azetidin-3-yl]-4-[(5-chlorofuran-2-yl)carbonyl]piperazine], the 2-AG accumulation, % of vehicle control at 1 µM on MGL came out at 198%. Also, on mutant MGL (setting [2]), the Kd came to 0.025 µM.

Take `O=C(c1ccccc1)N1CCN(C2CN(C(=O)c3ccc(Oc4ccc(Cl)c(Cl)c4)cc3)C2)CC1` [Cpd 422, 1-(1-{[4-(3,4-Dichlorophenoxy)phenyl]carbonyl}azetidin-3-yl)-4-(phenylcarbonyl)piperazine]: the 2-AG accumulation, % of vehicle control at 1 µM on MGL is 120%. Also, the Kd on mutant MGL (setting [1]) stood at 0.0532 µM.

With `O=C(c1ccc(OCc2cccc(Br)n2)cc1)N1CC(N2CCN(C(=O)c3cscn3)CC2)C1` [Cpd 987], the 2-AG accumulation, % of vehicle control at 1 µM at MGL worked out at 320%. Further, the Kd at mutant MGL (setting [2]) was 0.327 µM.

As for `O=C(c1cc2c(C(F)(F)F)cccc2s1)N1CC(N2CCN(C(=O)c3nccs3)CC2)C1` [Cpd 327, 1-(1,3-Thiazol-2-ylcarbonyl)-4-(1-{[4-(trifluoromethyl)-1-benzothiophen-2-yl]carbonyl}azetidin-3-yl)piperazine], at MGL, the 2-AG accumulation, % of vehicle control at 1 µM came out at 904%. The Kd at mutant MGL (setting [2]) is 0.0137 µM.

On to `O=C(c1ccc(CSc2cccc(Cl)c2)cc1)N1CC(N2CCN(C(=O)c3cscn3)CC2)C1` [Cpd 956], for which the 2-AG accumulation, % of vehicle control at 1 µM at MGL was determined as 514%. Also, at mutant MGL (setting [1]), the Kd came to 0.081 µM.

As to `O=C(c1ccc(C(F)(F)c2ccccc2)cc1)N1CC(N2CCN(C(=O)c3nccs3)CC2)C1` [Cpd 986, 1-[1-({4-[Difluoro(phenyl)methyl]phenyl}carbonyl)azetidin-3-yl]-4-(1,3-thiazol-2-ylcarbonyl)piperazine], the 2-AG accumulation, % of vehicle control at 1 µM at MGL is 626%. Moreover, the Kd at mutant MGL (setting [1]) was 0.005 µM.

As for `O=C(c1ccc2c(c1)CCCN2S(=O)(=O)c1cccc(C(F)(F)F)c1)N1CC(N2CCN(C(=O)c3nccs3)CC2)C1` [Cpd 367, 6-({3-[4-(1,3-Thiazol-2-ylcarbonyl)piperazin-1-yl]azetidin-1-yl}carbonyl)-1-{[3-(trifluoromethyl)phenyl]sulfonyl}-1,2,3,4-tetrahydroquinoline], at MGL, the 2-AG accumulation, % of vehicle control at 1 µM worked out at 701%. Besides, the Kd at mutant MGL (setting [2]) was 0.0853 µM.

For `O=C(c1ccccc1)N1CCN(C2CN(C(=O)c3ccc(SCc4cccc(Cl)c4)cc3)C2)CC1` [Cpd 410, 1-[1-({4-[(3-Chlorobenzyl)sulfanyl]phenyl}carbonyl)azetidi-3-yl]-4-(phenylcarbonyl)piperazine], the 2-AG accumulation, % of vehicle control at 10 µM on MGL was determined as 720%. For the same compound, on mutant MGL (setting [1]), the Kd was found to be 0.0333 µM.

As for `O=C(c1ccc2oc(-c3ccccc3)nc2c1)N1CC(N2CCN(C(=O)c3cscn3)CC2)C1` [Cpd 1382, 2-Phenyl-5-({3-[4-(1,3-thiazol-4-ylcarbonyl)piperazin-1-yl]azetidin-1-yl}carbonyl)-1,3-benzoxazole], the 2-AG accumulation, % of vehicle control at 10 µM on MGL amounted to 293%. For the same compound, the Kd on mutant MGL (setting [1]) turned out to be 0.197 µM.

Consider `O=C(c1ccc(C2CCCCC2)cc1)N1CC(N2CCN(C(=O)c3ccco3)CC2)C1` [Cpd 2, 1-{1-[(4-Cyclohexylphenyl)carbonyl]azetidin-3-yl}-4-(furan-2-ylcarbonyl)piperazine], for which, on MGL, the 2-AG accumulation, % of vehicle control at 10 µM came out at 911%. In addition, the Kd at mutant MGL (setting [1]) was 0.00049 µM.

On to `O=C(c1nccs1)N1CCN(C2CN(C(=O)c3cc(-c4ccccc4)oc3C(F)(F)F)C2)CC1` [Cpd 1379], for which the 2-AG accumulation, % of vehicle control at 1 µM at MGL came to 282%. Besides, the Kd at mutant MGL (setting [2]) came out at 0.042 µM.

As to `O=C(c1ccccc1)N1CCN(C2CN(C(=O)c3sc4cc(F)ccc4c3Cl)C2)CC1` [Cpd 543], the 2-AG accumulation, % of vehicle control at 1 µM at MGL amounted to 158%. Further, the Kd on mutant MGL (setting [2]) worked out at 0.038 µM.

For the compound `O=C(c1ccccc1)N1CCN(C2CN(C(=O)c3ccc4c(ccn4-c4cccc(C(F)(F)F)c4)c3)C2)CC1` [Cpd 129, 1-[3-(Trifluoromethyl)phenyl]-5-({3-[4-(phenyl-carbonyl)piperazin-1-yl]azetidin-1-yl}carbonyl)-1H-indole], the 2-AG accumulation, % of vehicle control at 1 µM at MGL is 499%. Moreover, the Kd at mutant MGL (setting [2]) is 0.01 µM.

Consider `Cc1nc(COc2ccc(Cl)cc2)sc1C(=O)N1CC(N2CCN(C(=O)c3nccs3)CC2)C1` [Cpd 965], for which, at MGL, the 2-AG accumulation, % of vehicle control at 1 µM was determined as 591%. Moreover, at mutant MGL (setting [1]), the Kd came out at 0.035 µM.

With `O=C(c1ccc2c(cnn2-c2cccc(F)c2)c1)N1CC(N2CCN(C(=O)c3nccs3)CC2)C1` [Cpd 1110], the 2-AG accumulation, % of vehicle control at 1 µM at MGL was determined as 807%. Besides, on mutant MGL (ThermoFluor, compound concentration measured by qNMR, read-out: MGL mutant ThermoFluor qKd (μM) (using qNMR conc.)), the Kd worked out at 0.01 µM.

In the case of `O=C(c1ccc(OCc2ccncc2)cc1)N1CC(N2CCN(C(=O)c3nccs3)CC2)C1` [Cpd 403, 1-(1-{[4-(Pyridin-4-ylmethoxy)phenyl]carbonyl}azetidin-3-yl)-4-(1,3-thiazol-2-ylcarbonyl)piperazine], the 2-AG accumulation, % of vehicle control at 1 µM on MGL was 188%. Further, at mutant MGL (setting [2]), the Kd came out at 0.338 µM.

`O=C(c1ccccc1)N1CCN(C2CN(C(=O)c3ccc(-c4ccc(C(F)(F)F)cc4)s3)C2)CC1` [Cpd 347]: the 2-AG accumulation, % of vehicle control at 1 µM on MGL was found to be 125%. The Kd on mutant MGL (setting [2]) was found to be 0.125 µM.

For `O=C(c1ccc(OCc2ccncc2)c(Cl)c1)N1CC(N2CCN(C(=O)c3nccs3)CC2)C1` [Cpd 398, 1-(1-{[3-Chloro-4-(pyridin-4-ylmethoxy)phenyl]carbon-yl}azetidin-3-yl)-4-(1,3-thiazol-2-ylcarbonyl)piperazine], at MGL, the 2-AG accumulation, % of vehicle control at 1 µM amounted to 392%. At mutant MGL (setting [2]), the Kd worked out at 0.0869 µM.

In the case of `O=C(c1ccc2c(c1)CCCN2C(=O)C1CC1)N1CC(N2CCN(C(=O)c3nccs3)CC2)C1` [Cpd 359, 1-(Cyclopropylcarbonyl)-6-({3-[4-(1,3-thiazol-2-ylcarbon-yl)piperazin-1-yl]azetidin-1-yl}carbonyl)-1,2,3,4-tetrahydroquinoline], the 2-AG accumulation, % of vehicle control at 1 µM at MGL was 176%. For the same compound, the Kd on mutant MGL (setting [2]) is 0.0829 µM.
